Data published in EP2123285A1, “Nucleosidic phosphoantigens for use in VGAMMA9DELTA2 T cell-mediated therapy” (INSERM (Institut National de la Santé et de la Recherche …, priority 2008, dated 2009).
Entries after “also recorded” stand apart in the source; their conditions may differ. Read-outs that look alike come from different tables or passages of the source.

How the values were obtained:
[1] = tested on: polyclonal Vγ9Vδ2 T cell line; experiment: Degranulation assay for cytolytic function (CD107a), direct stimulation with soluble antigens; format: cell-based, human; details: for surface expression of CD107a (cytotoxicity machinery): soluble antigen, no enzyme added
From the text: (§1) Brefeldin A was omitted. […] Cells were washed twice in FACS medium and stained for TCR-Vδ2. Data were acquired and analyzed as for proliferation assay. Results are expressed as the mean of triplicate microwell cultures +/-S.E.M.

[2] = tested on: polyclonal Vγ9Vδ2 T cell line; experiment: Degranulation assay (CD107a) with tumor cell lines as presenting or pulsed cells; format: cell-based, human; details: for stimulatory activity of pulsed 721.221 cells: 721.221 cell line; for sensitivity of stimulation by pulsed cells to apyrase and pyrophosphatase: Daudi or K562 cells pulsed overnight (pamidronate 50µM, ApppI 20µM), apyrase 0.2U/mL, NPP 0.02U/mL, alone or in combination; for pulsing of RPMI-8226 cells: 2h, 10µM
apyrase = molecular target: T1, apyrase (Solanum tuberosum, UniProt P80595); experiment: HPLC analysis of sensitivity to apyrase; format: in vitro ADME; details: 100µM, 0.2U/mL apyrase, 1h at 37°C in RPMI
T1 sequence (P80595 1-454): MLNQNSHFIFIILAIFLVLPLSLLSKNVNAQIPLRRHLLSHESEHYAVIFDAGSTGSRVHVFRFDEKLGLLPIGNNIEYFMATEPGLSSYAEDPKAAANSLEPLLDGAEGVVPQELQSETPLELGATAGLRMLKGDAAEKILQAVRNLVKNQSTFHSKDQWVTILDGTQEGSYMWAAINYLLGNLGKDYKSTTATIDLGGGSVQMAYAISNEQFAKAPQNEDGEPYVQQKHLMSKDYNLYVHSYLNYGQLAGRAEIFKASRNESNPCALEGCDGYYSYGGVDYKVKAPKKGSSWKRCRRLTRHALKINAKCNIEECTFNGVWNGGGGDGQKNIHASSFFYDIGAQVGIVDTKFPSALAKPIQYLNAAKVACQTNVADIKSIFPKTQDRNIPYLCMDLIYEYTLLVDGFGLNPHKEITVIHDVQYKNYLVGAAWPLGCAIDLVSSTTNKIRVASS
Experimental: Reaction mixes containing nucleosidic compounds were adjusted to 200µL with water and products were separated by HPLC (System Gold, Beckman Coulter) on a PL-SAX anion exchange column (1000Å, 5µm, 50x4.6mm from Polymer Labs Varian, Marseille, France) using water (A) and 1M (NH4)2HPO4, pH 3.5 (B) and the following elution gradient: 0-1 min: 0% B; 1-11 min: 0% to 30% B; 11-13 min: 100% B; 13-19min: 0% B. Eluted nucleotides were detected by monitoring UV absorbance at 260nm. In these conditions, adenosine and AMP are not retained on the column and are detected with the elution front. To evaluate phosphatase sensitivity, ApppI and ATP (100µM final concentration) were incubated for 1h at 37°C in 20µL RPMI in the presence of 0.2U/mL apyrase or 0.02U/mL nucleotide pyrophosphatase before analysis.

Vγ9Vδ2 T cells [3] = experiment: Intracellular cytokine staining (IFNγ); format: cell-based, human
[4] = molecular target: T2, bovine F1-ATPase (in the form of F1Fo complexes) (Bos taurus, UniProt P00829+P19483); experiment: Pulsing on F1Fo-coated beads and subsequent T cell activation (CD107a); format: binding
T2 construct: from tissue
Experimental: as §1
For immobilization on beads, solubilized F1Fo complexes were diluted to 1/3000 (5µg/mL) in 1 ml of PBS and incubated with 10^7 6µm polystyrene beads (Biovalley, Marne-la-Vallée, France) for 4h at room temperature on a rotating wheel. Beads were then pelleted by centrifugation (2min, 12000g), washed and incubated in 1mL of 1% BSA in PBS overnight, washed once with PBS and kept for several days at 4°C in PBS containing 1% BSA. Beads were used in stimulation assays as cultured cell lines. Control beads were prepared similarly except that F1Fo was replaced by BSA. In some experiments the beads were loaded with phosphoantigens: to this end, after washing a suitable aliquot, beads were incubated with ApppI or IPP (50µM) for 2 hours at 37°C in complete SFM medium, washed extensively, and used for Vγ9Vδ2 T cells stimulation. In phosphatase sensitivity assays (Fig.8) NPP or control medium were added to the beads in microculture wells 30min before pulsing the beads or addition of T cells. The beads were then washed and T cells were added with or without supplementation with the same phosphatases. T cell activation was evaluated as described above.

Vγ9Vδ2 T cells [5] = experiment: Single cell analysis of calcium mobilization; format: cell-based, human; details: ApppI-loaded, F1-coated beads
Vγ9Vδ2 T cells [6] = experiment: Proliferation assay: Vγ9Vδ2 T cell expansion from PBL stimulated with phosphoantigen plus IL-2; format: cell-based, human
[7] = molecular target: nucleotide pyrophosphatase (Crotalus adamanteus, UniProt J3SEZ3)
[8] = molecular target: T3, F1-ATPase purified from bovine heart mitochondria (Bos taurus, UniProt P00829+P19483); experiment: F1-ATPase activity, kinetics of ADP production (lactate dehydrogenase/pyruvate kinase assay); format: biochemical; details: 100 µM ApppI, low ATP concentrations
T3 construct: F1-ATPase purified from bovine heart mitochondria; from tissue; host or cells: bovine heart mitochondria
Experimental: (§2) F1-ATPase complexes were recovered from ammonium sulfate precipitates by centrifugation (17000g, 3min) and dissolved in ATPase assay buffer (10mM HEPES, 150mM NaCl, 5mM KCl, 2mM MgCl2, pH 7.5). ATP and ADP were measured using two different assays. For ATP measurements, a bioluminescence assay was used: 100ng F1-ATPase were incubated at room temperature in 50µL of ATPase assay buffer containing 1µM ATP and the indicated apyrase-treated ApppI concentrations in white 96 wells plates. After 5 minutes, 30µL of reconstituted luciferase from the ATP CLSII Kit (Roche) were added and luminescence was acquired on an Orion luminometer (Berthold Detection Systems). The kinetics of ADP production resulting from ATP hydrolysis was measured using the lactate dehydrogenase/pyruvate kinase assay and was adapted from Gledhill, J.R. et al., Biochem J 386, 591-598, 2005: 2µg F1-ATPase were incubated in 200µL of ATPase assay buffer supplemented with phosphoenol pyruvate (500µM), NADH (250µM), lactate dehydrogenase (LDH, 1U) and pyruvate kinase (PK, 5U), with the indicated ATP concentrations and with or without 100µM apyrase-treated ApppI. OD340nm was measured during 2 minutes (with one measurement every 10 seconds) on a Varioskan Flash spectrophotometer (Thermo Electron Corporation). The initial hydrolysis rate (V0) was calculated from a linear regression of the data. […]

[9] = molecular target: T3, F1-ATPase purified from bovine heart mitochondria; experiment: F1-ATPase activity, ATP bioluminescence assay; format: biochemical; details: 1µM ATP, 5min, ApppI added in the reaction mixture
Experimental: as §2

## Nc1ncnc2c1ncn2[C@@H]1O[C@H](COP(=O)(O)OP(=O)(O)O)[C@@H](O)[C@H]1O [ADP]
[1]; data not shown
  effect on T cell stimulations: no effect

## C=C(C)CCO[P@@](=O)(O)OP(=O)(O)O [IPP, isopentenyl pyrophosphate, reference compound]
[2]
  stimulatory activity retained on pulsed tumor cells after extensive washing: less than 20%
[1]
  surface expression of CD107a (cytotoxicity machinery): stronger stimulation

## Nc1ncnc2c1ncn2[C@@H]1O[C@H](COP(=O)(O)OP(=O)(O)OP(=O)(O)O)[C@@H](O)[C@H]1O [ATP, reference compound]
apyrase
  HPLC profile after apyrase treatment: completely hydrolyzed

## CC[C@H](C)C(=O)O[C@H]1C[C@@H](C)C=C2C=C[C@H](C)[C@H](CC[C@@H]3C[C@@H](O)CC(=O)O3)[C@H]21 [lovastatin, reference compound]
[2]; K562 cells, lovastatin 20µM, ApppI 20µM, overnight
  effect on stimulatory activity induced by pulsing with ApppI: does not inhibit
[2]; K562 cells, lovastatin 20µM, pamidronate 50µM, overnight
  effect on stimulatory activity induced by pamidronate: efficiently abrogates

## Cc1nc(N=Nc2ccc(S(=O)(=O)O)cc2S(=O)(=O)O)c(COP(=O)(O)O)c(C=O)c1O [PPADS, pyridoxal phosphate-6-azophenyl-2',4'-disulfonic acid]
[1]; PPADS added to ApppI stimulation
  effect on ApppI stimulatory activity: inhibition
[1]; PPADS added to IPP stimulation
  effect on IPP stimulatory activity: partially decreases

## NCCC(O)(P(=O)(O)O)P(=O)(O)O [pamidronate, reference compound]
[2]
  stimulatory activity of pulsed 721.221 cells: poorly stimulatory
  sensitivity of stimulation by pulsed cells to apyrase and pyrophosphatase: completely resistant

## C=C(C)CCOP(=O)(O)OP(=O)(O)OP(=O)(O)OC[C@H]1O[C@@H](n2cnc3c(N)ncnc32)[C@H](O)[C@@H]1O [ApppI, 1-(adenosin-5'-yl) 3-(3-methylbut-3-enyl) triphosphoric diester]
apyrase
  HPLC profile after apyrase treatment: did not change its HPLC profile
Vγ9Vδ2 T cells [3]; IPP (10µM) plus ApppI at varying concentrations
  effect of ApppI added to IPP on the IPP response: does not compete with IPP
Vγ9Vδ2 T cells [3]; PBL stimulation
  induction of intracellular IFN-γ production: could induce
Vγ9Vδ2 T cells [3]; relative to IPP, intracellular IFNγ
  higher concentration required for a similar cytokine response: 50-100 fold
[4]; ApppI treated with NPP before pulsing on beads
  stimulatory activity of loaded F1-ATPase-coated beads: no activity is retained
[4]; NPP 0.02U/mL added in the T cell stimulation assay
  stimulatory activity of loaded F1-ATPase-coated beads: a strong stimulatory activity can be revealed
[4]; beads incubated with 50µM antigen for 2h, washed, no NPP
  stimulatory activity of loaded F1-ATPase-coated beads: confers some additional stimulatory activity
[4]; beads treated with NPP after pulsing, then washed
  stimulatory activity of loaded F1-ATPase-coated beads: retain an activity identical to that of beads which have not been treated with NPP
[2]
  stimulatory activity of pulsed 721.221 cells: cannot be significantly pulsed; also recorded: poorly stimulatory
  sensitivity of stimulation by pulsed cells to apyrase and pyrophosphatase: completely resistant
[2]; 4°C
  pulsing of RPMI-8226 cells: abrogated
[2]; 37°C
  pulsing of RPMI-8226 cells: sufficient to confer stable stimulatory activity
[2]; 37°C after 2h pre-treatment with cytochalasin D (10µM)
  pulsing of RPMI-8226 cells: abrogated
[2]; RPMI-8226 cells 1:1 ratio plus soluble antigen
  stimulation by combination of RPMI-8226 cells and phosphoantigen: synergistic activation
[2]; tumor cell lines pulsed overnight, compared to tumor cells not washed
  stimulatory activity retained on pulsed tumor cells after extensive washing: 70%
[1]; NPP 0.02U/mL added to the T cell stimulation assay
  effect of exogenous NPP on stimulatory activity: greatly increased
[1]; apyrase 0.2U/mL, antigen 10µM
  effect of apyrase on stimulatory activity: abrogates completely
[1]
  surface expression of CD107a (cytotoxicity machinery): less bioactive than IPP itself
Vγ9Vδ2 T cells [5]; NPP 0.02U/mL added after contact
  intracellular calcium mobilization: slow but strong and sustained calcium response
Vγ9Vδ2 T cells [5]; no NPP
  intracellular calcium mobilization: clear activation in few cells only
Vγ9Vδ2 T cells [6]; 5 µM
  homogeneity of the culture (Vγ9Vδ2 T cells): ~94%
Vγ9Vδ2 T cells [6]; PBL stimulation
  induction of proliferation: could induce
Vγ9Vδ2 T cells [6]; relative to IPP, 1 week after PBL stimulation
  higher molar concentration required for a similar effect on Vγ9Vδ2 T cell expansion from PBLs: 5-10 fold
[7]
  hydrolysis by NPP (HPLC): can be hydrolyzed
[8]
  initial rate of ADP production relative to the rate in the absence of ApppI: approximately twice
[9]
  increase of the amount of ATP hydrolyzed by the complex: two-fold
